Patent publication US8952024B2, “Herbicidal pyrimidone derivatives” (E I du Pont de Nemours and Company, priority 2009, dated 2015)

What was measured:
Experiment in all cases: Test D pre-/postemergence plant response
Format in all cases: in vivo
[1] = tested on: sowthistle (common sowthistle, Sonchus oleraceous); details: Postemergence
How it was run: (§1)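 Both preemergence and postemergence treatments were made at the same time, with the compound in a non-phytotoxic, surfactant-containing solvent mixture. Plants grew in a greenhouse for 14–21 days before visual evaluation, scored from 0 (no effect) to 100 (complete control).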

[2] = tested on: signalgrass (broadleaf signalgrass, Brachiaria platyphylla); details: Postemergence
How it was run: as §1

[3] = tested on: bluegrass (annual bluegrass, Poa annua); details: Postemergence, scale 0 to 100 (0 no effect, 100 complete control)
How it was run: as §1

[4] = tested on: purslane (common purslane, Portulaca oleracea); details: Postemergence
How it was run: as §1

[5] = tested on: guineagrass (Panicum maximum); details: Postemergence
How it was run: as §1

[6] = tested on: prickly sida (Sida spinosa); details: Postemergence
How it was run: as §1

[7] = tested on: green foxtail (Setaria viridis); details: Postemergence
How it was run: as §1

[8] = tested on: itchgrass (Rottboellia cochinchinensis); details: Postemergence
How it was run: as §1

[9] = tested on: Surinam grass (Brachiaria decumbens); details: Postemergence
How it was run: as §1

[10] = tested on: morningglory (pitted morningglory, Ipomoea lacunosa); details: Postemergence
How it was run: as §1

[11] = tested on: spanishneedles (Bidens bipinnata); details: Postemergence
How it was run: as §1

[12] = tested on: dayflower (Virginia (VA) dayflower, Commelina virginica); details: Postemergence
How it was run: as §1

[13] = tested on: goosegrass (Eleusine indica); details: Postemergence
How it was run: as §1

[14] = tested on: black mustard (Brassica nigra); details: Postemergence, scale 0 to 100 (0 no effect, 100 complete control)
How it was run: as §1

[15] = tested on: bermudagrass (Cynodon dactylon); details: Postemergence, scale 0 to 100 (0 no effect, 100 complete control)
How it was run: as §1

[16] = tested on: Russian thistle (Salsola kali); details: Postemergence
How it was run: as §1

[17] = tested on: nutsedge (purple nutsedge, Cyperus rotundus); details: Postemergence
How it was run: as §1

kochia (Kochia scoparia) = details: Postemergence
How it was run: as §1

[18] = 62 g ai/ha, scale 0 to 100 (0 no effect, 100 complete control)
[19] = 125 g ai/ha, scale 0 to 100 (0 no effect, 100 complete control)
[20] = 250 g ai/ha, scale 0 to 100 (0 no effect, 100 complete control)

## COCCn1c(-c2cccc(F)c2)ncc(C(=O)C2=C(O)C3CCC(C3)C2=O)c1=O (stereo not drawn) [Compound 235]
[1]; 31 g ai/ha, scale 0 to 100
  Plant response rating, Sowthistle: 98
[1]; [18]
  Plant response rating, Sowthistle: 98
[1]; [19]
  Plant response rating, Sowthistle: 98
[1]; [20]
  Plant response rating, Sowthistle: 98
[2]; 31 g ai/ha, scale 0 to 100
  Plant response rating, Signalgrass: 65
[2]; [18]
  Plant response rating, Signalgrass: 90
[2]; [19]
  Plant response rating, Signalgrass: 90
[2]; [20]
  Plant response rating, Signalgrass: 95
[3]; 31 g ai/ha
  Plant response rating, Bluegrass: 5
[3]; 62 g ai/ha
  Plant response rating, Bluegrass: 20
[3]; 125 g ai/ha
  Plant response rating, Bluegrass: 35
[3]; 250 g ai/ha
  Plant response rating, Bluegrass: 50
[4]; 31 g ai/ha, scale 0 to 100
  Plant response rating, Purslane: 60
[4]; [18]
  Plant response rating, Purslane: 60
[4]; [19]
  Plant response rating, Purslane: 60
[4]; [20]
  Plant response rating, Purslane: 70
[5]; 31 g ai/ha, scale 0 to 100
  Plant response rating, Guineagrass: 75
[5]; [18]
  Plant response rating, Guineagrass: 75
[5]; [19]
  Plant response rating, Guineagrass: 75
[5]; [20]
  Plant response rating, Guineagrass: 75
[6]; 31 g ai/ha, scale 0 to 100
  Plant response rating, Prickly Sida: 65
[6]; [18]
  Plant response rating, Prickly Sida: 65
[6]; [19]
  Plant response rating, Prickly Sida: 70
[6]; [20]
  Plant response rating, Prickly Sida: 75
[7]; 31 g ai/ha, scale 0 to 100
  Plant response rating, Foxtail, Green: 70
[7]; [18]
  Plant response rating, Foxtail, Green: 95
[7]; [19]
  Plant response rating, Foxtail, Green: 98
[7]; [20]
  Plant response rating, Foxtail, Green: 98
[8]; 31 g ai/ha, scale 0 to 100
  Plant response rating, Itchgrass: 70
[8]; [18]
  Plant response rating, Itchgrass: 75
[8]; [19]
  Plant response rating, Itchgrass: 80
[8]; [20]
  Plant response rating, Itchgrass: 90
[9]; 31 g ai/ha, scale 0 to 100
  Plant response rating, Surinam Grass: 75
[9]; [18]
  Plant response rating, Surinam Grass: 75
[9]; [19]
  Plant response rating, Surinam Grass: 75
[9]; [20]
  Plant response rating, Surinam Grass: 85
[10]; 31 g ai/ha, scale 0 to 100
  Plant response rating, Morningglory: 75
[10]; [18]
  Plant response rating, Morningglory: 75
[10]; [19]
  Plant response rating, Morningglory: 95
[10]; [20]
  Plant response rating, Morningglory: 95
[11]; 31 g ai/ha, scale 0 to 100
  Plant response rating, Spanishneedles: 65
[11]; [18]
  Plant response rating, Spanishneedles: 70
[11]; [19]
  Plant response rating, Spanishneedles: 80
[11]; [20]
  Plant response rating, Spanishneedles: 85
[12]; 31 g ai/ha, scale 0 to 100
  Plant response rating, Dayflower, VA: 60
[12]; [18]
  Plant response rating, Dayflower, VA: 70
[12]; [19]
  Plant response rating, Dayflower, VA: 75
[12]; [20]
  Plant response rating, Dayflower, VA: 75
[13]; 31 g ai/ha, scale 0 to 100
  Plant response rating, Goosegrass: 75
[13]; [18]
  Plant response rating, Goosegrass: 75
[13]; [19]
  Plant response rating, Goosegrass: 75
[13]; [20]
  Plant response rating, Goosegrass: 75
[14]; 31 g ai/ha
  Plant response rating, Black Mustard: 80
[14]; 62 g ai/ha
  Plant response rating, Black Mustard: 80
[14]; 125 g ai/ha
  Plant response rating, Black Mustard: 98
[14]; 250 g ai/ha
  Plant response rating, Black Mustard: 98
[15]; 31 g ai/ha
  Plant response rating, Bermudagrass: 80
[15]; 62 g ai/ha
  Plant response rating, Bermudagrass: 95
[15]; 125 g ai/ha
  Plant response rating, Bermudagrass: 95
[15]; 250 g ai/ha
  Plant response rating, Bermudagrass: 95
[16]; 31 g ai/ha, scale 0 to 100
  Plant response rating, Russian Thistle: 30
[16]; [18]
  Plant response rating, Russian Thistle: 30
[16]; [19]
  Plant response rating, Russian Thistle: 50
[16]; [20]
  Plant response rating, Russian Thistle: 60
[17]; 31 g ai/ha, scale 0 to 100
  Plant response rating, Nutsedge, Purple: 5
[17]; [18]
  Plant response rating, Nutsedge, Purple: 5
[17]; [19]
  Plant response rating, Nutsedge, Purple: 30
[17]; [20]
  Plant response rating, Nutsedge, Purple: 40
Kochia (Kochia scoparia); 31 g ai/ha, scale 0 to 100
  Plant response rating, Kochia: 20
Kochia (Kochia scoparia); [18]
  Plant response rating, Kochia: 60
Kochia (Kochia scoparia); [19]
  Plant response rating, Kochia: 70
Kochia (Kochia scoparia); [20]
  Plant response rating, Kochia: 85

## COCCCn1c(-c2cccc(F)c2)ncc(C(=O)C2=C(O)C3CCC(C3)C2=O)c1=O (stereo not drawn) [Compound 238]
[1]; 31 g ai/ha, scale 0 to 100
  Plant response rating, Sowthistle: 95
[1]; [18]
  Plant response rating, Sowthistle: 95
[1]; [19]
  Plant response rating, Sowthistle: 95
[1]; [20]
  Plant response rating, Sowthistle: 95
[2]; 31 g ai/ha, scale 0 to 100
  Plant response rating, Signalgrass: 20
[2]; [18]
  Plant response rating, Signalgrass: 35
[2]; [19]
  Plant response rating, Signalgrass: 60
[2]; [20]
  Plant response rating, Signalgrass: 65
[3]; 31 g ai/ha
  Plant response rating, Bluegrass: 0
[3]; 62 g ai/ha
  Plant response rating, Bluegrass: 5
[3]; 125 g ai/ha
  Plant response rating, Bluegrass: 20
[3]; 250 g ai/ha
  Plant response rating, Bluegrass: 40
[4]; 31 g ai/ha, scale 0 to 100
  Plant response rating, Purslane: 60
[4]; [18]
  Plant response rating, Purslane: 60
[4]; [19]
  Plant response rating, Purslane: 60
[4]; [20]
  Plant response rating, Purslane: 60
[5]; 31 g ai/ha, scale 0 to 100
  Plant response rating, Guineagrass: 25
[5]; [18]
  Plant response rating, Guineagrass: 50
[5]; [19]
  Plant response rating, Guineagrass: 65
[5]; [20]
  Plant response rating, Guineagrass: 75
[6]; 31 g ai/ha, scale 0 to 100
  Plant response rating, Prickly Sida: 30
[6]; [18]
  Plant response rating, Prickly Sida: 30
[6]; [19]
  Plant response rating, Prickly Sida: 50
[6]; [20]
  Plant response rating, Prickly Sida: 65
[7]; 31 g ai/ha, scale 0 to 100
  Plant response rating, Foxtail, Green: 75
[7]; [18]
  Plant response rating, Foxtail, Green: 80
[7]; [19]
  Plant response rating, Foxtail, Green: 80
[7]; [20]
  Plant response rating, Foxtail, Green: 95
[8]; 31 g ai/ha, scale 0 to 100
  Plant response rating, Itchgrass: 70
[8]; [18]
  Plant response rating, Itchgrass: 70
[8]; [19]
  Plant response rating, Itchgrass: 75
[8]; [20]
  Plant response rating, Itchgrass: 80
[9]; 31 g ai/ha, scale 0 to 100
  Plant response rating, Surinam Grass: 75
[9]; [18]
  Plant response rating, Surinam Grass: 75
[9]; [19]
  Plant response rating, Surinam Grass: 75
[9]; [20]
  Plant response rating, Surinam Grass: 85
[10]; 31 g ai/ha, scale 0 to 100
  Plant response rating, Morningglory: 70
[10]; [18]
  Plant response rating, Morningglory: 80
[10]; [19]
  Plant response rating, Morningglory: 80
[10]; [20]
  Plant response rating, Morningglory: 90
[11]; 31 g ai/ha, scale 0 to 100
  Plant response rating, Spanishneedles: 65
[11]; [18]
  Plant response rating, Spanishneedles: 70
[11]; [19]
  Plant response rating, Spanishneedles: 70
[11]; [20]
  Plant response rating, Spanishneedles: 75
[12]; 31 g ai/ha, scale 0 to 100
  Plant response rating, Dayflower, VA: 35
[12]; [18]
  Plant response rating, Dayflower, VA: 65
[12]; [19]
  Plant response rating, Dayflower, VA: 70
[12]; [20]
  Plant response rating, Dayflower, VA: 75
[13]; 31 g ai/ha, scale 0 to 100
  Plant response rating, Goosegrass: 50
[13]; [18]
  Plant response rating, Goosegrass: 70
[13]; [19]
  Plant response rating, Goosegrass: 75
[13]; [20]
  Plant response rating, Goosegrass: 75
[14]; 31 g ai/ha
  Plant response rating, Black Mustard: 80
[14]; 62 g ai/ha
  Plant response rating, Black Mustard: 95
[14]; 125 g ai/ha
  Plant response rating, Black Mustard: 98
[14]; 250 g ai/ha
  Plant response rating, Black Mustard: 98
[15]; 31 g ai/ha
  Plant response rating, Bermudagrass: 80
[15]; 62 g ai/ha
  Plant response rating, Bermudagrass: 90
[15]; 125 g ai/ha
  Plant response rating, Bermudagrass: 95
[15]; 250 g ai/ha
  Plant response rating, Bermudagrass: 95
[16]; 31 g ai/ha, scale 0 to 100
  Plant response rating, Russian Thistle: 30
[16]; [18]
  Plant response rating, Russian Thistle: 40
[16]; [19]
  Plant response rating, Russian Thistle: 50
[16]; [20]
  Plant response rating, Russian Thistle: 50
[17]; 31 g ai/ha, scale 0 to 100
  Plant response rating, Nutsedge, Purple: 5
[17]; [18]
  Plant response rating, Nutsedge, Purple: 10
[17]; [19]
  Plant response rating, Nutsedge, Purple: 20
[17]; [20]
  Plant response rating, Nutsedge, Purple: 20
Kochia (Kochia scoparia); 31 g ai/ha, scale 0 to 100
  Plant response rating, Kochia: 20
Kochia (Kochia scoparia); [18]
  Plant response rating, Kochia: 50
Kochia (Kochia scoparia); [19]
  Plant response rating, Kochia: 65
Kochia (Kochia scoparia); [20]
  Plant response rating, Kochia: 75
